± gives the expanded uncertainty stated by the source.

Series [1] is described as follows: Molar enthalpy of transition or fusion. As to conditions: Crystal; DSC.
The conditions of series [2]: Crystal; DTA.

In the case of `C[C@H]([C@@H](O)c1ccccc1)N(C)C` [(+)-N-methylephedrine], the “Molar enthalpy of transition or fusion” value in series [1] was found to be 7.3 ± 0.208 kcal/mol. Moreover, the Normal melting temperature in series [2] was determined as 86.60 ± 2 °C.
